Here are results for 4 molecules from ChEMBL document CHEMBL1157956, “Aegicerin, the first oleanane triterpene with wide-ranging antimycobacterial activity, isolated from Clavija procera” (J Nat Prod, 2006).

Structures are written as SMILES. Values after ≈ are worked out from the molar mass of the structure shown. Some results are limits rather than exact numbers.

For data set [1], the system named is Mycobacterium tuberculosis. Description: Antimicrobial activity against drug-susceptible Mycobacterium tuberculosis isolate by alamar blue assay. Format: functional. Background: The colour change of resazurin is a common sign of viable cells or microbes.
The subject of data set [2] is Mycobacterium tuberculosis. Description: Antimicrobial activity against Mycobacterium tuberculosis H37Rv by alamar blue assay. The class given is functional.
Data set [3] can be described thus: Cytotoxicity against african green monkey Vero cells. The conditions noted are these: chlorocebus sabaeus. Format: cell-based.

`NNC(=O)c1ccncc1` [ISONIAZID]: the MIC in data set [1] and in data set [2] was 0.125 µg/mL (≈ 0.911 µM) throughout.
Turning to `CO[C@H]1/C=C/O[C@@]2(C)Oc3c(C)c(O)c4c(O)c(c(/C=N/N5CCN(C)CC5)c(O)c4c3C2=O)NC(=O)/C(C)=C\C=C\[C@H](C)[C@H](O)[C@@H](C)[C@@H](O)[C@@H](C)[C@H](OC(C)=O)[C@@H]1C` [RIFAMPIN], the MIC in data set [1] and in data set [2] was 0.063 µg/mL (≈ 0.0766 µM) in each case.
`CC1(C)CC[C@]23CO[C@@]4(CC[C@@H]5[C@@]6(C)CC[C@H](O)C(C)(C)[C@@H]6CC[C@@]5(C)[C@]4(C)CC2=O)[C@@H]3C1` [AEGICERIN]: the minimum inhibitory concentration (MIC) – broadly, the lowest concentration found to suppress growth – in data set [1] worked out at 1.6 µg/mL (≈ 3.5 µM); in data set [2], 3.1 µg/mL (≈ 6.79 µM). The GI50 (usually the concentration at which growth is held to half of that of the control) in data set [3] was more than 40 µg/mL.
For the molecule `CC1(C)CC[C@]23CO[C@@]4(CC[C@@H]5[C@@]6(C)CC[C@H](O)C(C)(C)[C@@H]6CC[C@@]5(C)[C@]4(C)C[C@H]2O)[C@@H]3C1` [PROTOPRIMULAGENIN A], the minimum inhibitory concentration (MIC) in data set [1] and in data set [2] was 200 µg/mL (≈ 436 µM) throughout.
